biological target: T1, Flag/GST-tagged recombinant human B-Raf (Homo sapiens, UniProt P15056); experiment: B-Raf kinase assay (phosphorylation of GST-MEK1, phospho-MEK1 antibody/Europium detection); assay type: biochemical; settings: B-Raf IC50 Data for compounds of Formula A; read-out: Mean IC50
T1 construct: Flag; GST; made in house; host or cells: Sf9 insect cells (B-Raf); E. coli (MEK1-GST)
Protocol: B-Raf1 Kinase Assay Procedure: B-Raf-1 is used to phosphorylate GST-MEK1.
• 1. Assay Dilution Buffer (ADB): 20 mM MOPS, pH 7.2, 25 mM β-glycerol phosphate, 5 mM EGTA, 1 mM sodium orthovanadate, 1 mM dithiothreitol, 0.01% Triton X-100. • 2. Magnesium/ATP Cocktail: ADB solution (minus Triton X-100) plus 200 μM cold ATP and 40 mM magnesium chloride. • 4. Active Kinase: Active B-Raf: Used at 0.2 nM per assay point. • 5. […] TBST—Tris (50 mM, pH 7.5), NaCl (150 mM), Tween-20 (0.05%) • 7. Anti-GST Ab (GE) • 8. Anti pMEK Ab (Upstate) • 9. Anti-rabbit Ab/Europium conjugate (Wallac).
B-Raf Assay Procedure: • 1. Added 25 μL of ADB containing B-Raf and Mek per assay (i.e. per well of a 96 well plate) • 2. Added 25 μL of 0.2 mM ATP and 40 mM magnesium chloride in Magnesuium/ATP Cocktail. • 3. Incubated for 45 minutes at RT with occasional shaking. • 4. Transferred this mixture to an anti-GST Ab coated 96 well plate (Nunc Immunosorb plates coated o/n with a-GST. Plate freshly washed 3×with TBS-T before use. • 5. Incubated o/n at […] in cold room. • 6. Washed 3× with TBST, ed Anti-Phospho MEK1 (1:1000, dilution depended upon lot) • 7. Incubated for 60 minutes at RT in a shaking incubator • 8. Washed 3× with TBST, add Anti-rabbit Ab/Europium conjugate (Wallac) (1:500, dilution depended upon lot) • 9. Incubated for 60 minutes at RT on a platform shaker. • 10. Washed plate 3× with TBS-T • 11. Added 100 μL of Wallac Delfia Enhancement Solution and agitated for 10 minutes. • 12. Read plates in Wallac Victor model Plate Reader. • 13.
The % inhibition was determined for each compound concentration.

T1 sequence (P15056 whole entry): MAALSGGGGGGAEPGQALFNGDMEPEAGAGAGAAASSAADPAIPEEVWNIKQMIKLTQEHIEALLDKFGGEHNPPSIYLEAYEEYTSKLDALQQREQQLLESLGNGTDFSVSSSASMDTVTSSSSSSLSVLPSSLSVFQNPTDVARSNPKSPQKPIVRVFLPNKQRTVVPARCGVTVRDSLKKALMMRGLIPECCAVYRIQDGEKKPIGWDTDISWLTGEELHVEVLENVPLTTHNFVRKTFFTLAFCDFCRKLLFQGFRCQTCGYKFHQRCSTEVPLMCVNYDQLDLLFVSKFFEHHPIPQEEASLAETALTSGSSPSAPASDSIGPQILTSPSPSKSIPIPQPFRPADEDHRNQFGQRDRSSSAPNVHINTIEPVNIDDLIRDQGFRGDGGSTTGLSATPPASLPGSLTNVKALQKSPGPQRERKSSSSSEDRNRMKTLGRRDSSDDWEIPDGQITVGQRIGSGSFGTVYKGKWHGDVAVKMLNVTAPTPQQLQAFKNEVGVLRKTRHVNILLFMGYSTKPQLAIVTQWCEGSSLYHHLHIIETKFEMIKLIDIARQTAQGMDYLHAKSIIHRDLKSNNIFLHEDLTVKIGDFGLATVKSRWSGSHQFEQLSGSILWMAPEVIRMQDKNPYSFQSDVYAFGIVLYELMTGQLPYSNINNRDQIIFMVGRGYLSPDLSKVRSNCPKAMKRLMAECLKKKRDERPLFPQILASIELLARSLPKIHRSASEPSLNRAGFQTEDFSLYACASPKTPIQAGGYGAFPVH

IC50	SMILES
39.9 nM	c1cc(-c2c(-c3ccncc3)nn3c2nccc3[C@H]2CC[C@@H](N3C4CCC3COC4)CC2)c2cn[nH]c2c1 (relative stereo) [Example 150, 3-(1H-indazol-4-yl)-7-[cis-4-(3-oxa-8-azabicyclo[3.2.1]oct-8-yl)cyclohexyl]-2-pyridin-4-ylpyrazolo[1,5-a]pyrimidine]
6.4 nM	c1cc(-c2c(-c3ccncc3)nn3c2nccc3[C@H]2CC[C@H](N3C4CCC3COC4)CC2)c2cn[nH]c2c1 (relative stereo) [Example 151, 3-(1H-indazol-4-yl)-7-[trans-4-(3-oxa-8-azabicyclo[3.2.1]oct-8-yl)cyclohexyl]-2-pyridin-4-ylpyrazolo[1,5-a]pyrimidine]
6.4 nM	c1cc(-c2c(-c3ccncc3)nn3c2nccc3[C@H]2CC[C@@H](N3CC4CCC(C3)O4)CC2)c2cn[nH]c2c1 (relative stereo) [Example 152, 3-(1H-indazol-4-yl)-7-[cis-4-(8-oxa-3-azabicyclo[3.2.1]oct-3-yl)cyclohexyl]-2-pyridin-4-ylpyrazolo[1,5-a]pyrimidine]
3.7 nM	c1cc(-c2c(-c3ccncc3)nn3c2nccc3[C@H]2CC[C@H](N3CC4CCC(C3)O4)CC2)c2cn[nH]c2c1 (relative stereo) [Example 153, 3-(1H-indazol-4-yl)-7-[trans-4-(8-oxa-3-azabicyclo[3.2.1]oct-3-yl)cyclohexyl]-2-pyridin-4-ylpyrazolo[1,5-a]pyrimidine]
8.6 nM	Fc1ccc(-c2c(-c3ccncc3)nn3c2nccc3[C@H]2CC[C@@H](N3CC4CCC(C3)O4)CC2)c2cn[nH]c12 (relative stereo) [Example 179, 3-(7-fluoro-1H-indazol-4-yl)-7-[cis-4-(8-oxa-3-azabicyclo[3.2.1]oct-3-yl)cyclohexyl]-2-pyridin-4-ylpyrazolo[1,5-a]pyrimidine]
1.8 nM	Fc1ccc(-c2c(-c3ccncc3)nn3c2nccc3[C@H]2CC[C@H](N3CC4CCC(C3)O4)CC2)c2cn[nH]c12 (relative stereo) [Example 180, 3-(7-fluoro-1H-indazol-4-yl)-7-[trans-4-(8-oxa-3-azabicyclo[3.2.1]oct-3-yl)cyclohexyl]-2-pyridin-4-ylpyrazolo[1,5-a]pyrimidine]
2.1 nM	Fc1ccc(-c2c(-c3ccncc3)nn3c2nccc3[C@H]2CC[C@@H](N3C4CCC3COC4)CC2)c2cn[nH]c12 (relative stereo) [Example 181, 3-(7-fluoro-1H-indazol-4-yl)-7-[cis-4-(3-oxa-8-azabicyclo[3.2.1]oct-8-yl)cyclohexyl]-2-pyridin-4-ylpyrazolo[1,5-a]pyrimidine]
1.3 nM	Fc1ccc(-c2c(-c3ccncc3)nn3c2nccc3[C@H]2CC[C@H](N3C4CCC3COC4)CC2)c2cn[nH]c12 (relative stereo) [Example 182, 3-(7-fluoro-1H-indazol-4-yl)-7-[trans-4-(3-oxa-8-azabicyclo[3.2.1]oct-8-yl)cyclohexyl]-2-pyridin-4-ylpyrazolo[1,5-a]pyrimidine]
2 nM	CCOC(=O)N1C2CCC1CC(c1ccnc3c(-c4ccc(Cl)c(O)c4)c(-c4ccncc4)nn13)C2 (stereo not shown) [Example 11, Ethyl 3-(3-(4-chloro-3-hydroxyphenyl)-2-(pyridin-4-yl)pyrazolo[1,5-a]pyrimidin-7-yl)-8-azabicyclo[3.2.1]octane-8-carboxylate]
2 nM	CS(=O)(=O)N1C2CCC1CC(c1ccnc3c(-c4ccc(Cl)c(O)c4)c(-c4ccncc4)nn13)C2 (stereo not shown) [Example 14, 2-Chloro-5-{7-[8-(methylsulfonyl)-8-azabicyclo[3.2.1]oct-3-yl]-2-pyridin-4-ylpyrazolo[1,5-a]pyrimidin-3-yl}phenol]
10 nM	CC(=O)Oc1cc(-c2c(-c3ccncc3)nn3c(C4CC5CCC(C4)N5C(C)=O)ccnc23)ccc1Cl (stereo not shown) [Example 15, 5-[7-(8-Acetyl-8-azabicyclo[3.2.1]oct-3-yl)-2-pyridin-4-ylpyrazolo[1,5-a]pyrimidin-3-yl]-2-chlorophenyl acetate]
9 nM	COc1cc(-c2c(-c3ccncc3)nn3c(C4CC5CCC(C4)N5)ccnc23)ccc1Cl (stereo not shown) [Example 16, 7-(8-Azabicyclo[3.2.1]oct-3-yl)-3-(4-chloro-3-methoxyphenyl)-2-pyridin-4-ylpyrazolo[1,5-a]pyrimidine]
0.6 nM	CCN1C2CCC1CC(c1ccnc3c(-c4ccc(Cl)c(O)c4)c(-c4ccncc4)nn13)C2 (stereo not shown) [Example 18, 2-Chloro-5-[7-(8-ethyl-8-azabicyclo[3.2.1]oct-3-yl)-2-pyridin-4-ylpyrazolo[1,5-a]pyrimidin-3-yl]phenol]
835 nM	CCN1C2CCC1CC(c1ccnc3c(-c4ccnc(OC)c4)c(-c4ccncc4)nn13)C2 (stereo not shown) [Example 20, 7-(8-Ethyl-8-azabicyclo[3.2.1]octan-3-yl)-3-(2-methoxypyridin-4-yl)-2-(pyridin-4-yl)pyrazolo[1,5-a]pyrimidine]
> 1000 nM	CCN1C2CCC1CC(c1ccnc3c(-c4ccnc(O)c4)c(-c4ccncc4)nn13)C2 (stereo not shown) [Example 21, 4-(7-(8-Ethyl-8-azabicyclo[3.2.1]octan-3-yl)-2-(pyridin-4-yl)pyrazolo[1,5-a]pyrimidin-3-yl)pyridin-2-ol]

SMILES	IC50
Oc1cccc(-c2c(-c3ccncc3)nn3c(-c4ccc(NCC56CCN(CC5)CC6)nc4)ccnc23)c1 [Example 1, 3-(7-{6-[(1-Azabicyclo[2.2.2]oct-4-ylmethyl)amino]pyridin-3-yl}-2-pyridin-4-ylpyrazolo[1,5-a]pyrimidin-3-yl)phenol]	2 nM
Oc1cccc(-c2c(-c3ccncc3)nn3c(-c4ccc(N[C@@H]5CN6CCC5CC6)nc4)ccnc23)c1 [Example 2, 3-(7-{6-[(3S)-1-Azabicyclo[2.2.2]oct-3-ylamino]pyridin-3-yl}-2-pyridin-4-ylpyrazolo[1,5-a]pyrimidin-3-yl)phenol]	2 nM
Oc1cccc(-c2c(-c3ccncc3)nn3c(-c4ccc(N[C@H]5CN6CCC5CC6)nc4)ccnc23)c1 [Example 3, 3-(7-{6-[(3R)-1-Azabicyclo[2.2.2]oct-3-ylamino]pyridin-3-yl}-2-pyridin-4-ylpyrazolo[1,5-a]pyrimidin-3-yl)phenol]	1 nM
COc1cc(-c2c(-c3ccncc3)nn3c(-c4ccc(NC5CN6CCC5CC6)nc4)ccnc23)ccc1Cl [Example 5, 5-(7-{6-[(3R)-1-Azabicyclo[2.2.2]oct-3-ylamino]pyridin-3-yl}-3-(4-chloro-3-methoxyphenyl)-2-pyridin-4-ylpyrazolo[1,5-a]pyrimidine]	6 nM
Oc1cccc(-c2c(-c3ccncc3)nn3c(NCC45CCN(CC4)CC5)ccnc23)c1 [Example 6]	57 nM
CCOC(=O)N1C2CCC1CC(c1ccnc3c(-c4cccc(OC)c4)c(-c4ccncc4)nn13)C2 (stereo not shown) [Example 7, Ethyl 3-(3-(3-methoxyphenyl)-2-(pyridin-4-yl)pyrazolo[1,5-a]pyrimidin-7-yl)-8-azabicyclo[3.2.1]octane-8-carboxylate]	87 nM
CCOC(=O)N1C2CCC1CC(c1ccnc3c(-c4cccc(O)c4)c(-c4ccncc4)nn13)C2 (stereo not shown) [Example 8, Ethyl 3-(3-(3-hydroxyphenyl)-2-(pyridin-4-yl)pyrazolo[1,5-a]pyrimidin-7-yl)-8-azabicyclo[3.2.1]octane-8-carboxylate]	1 nM
Oc1cccc(-c2c(-c3ccncc3)nn3c(C4CC5CCC(C4)N5)ccnc23)c1 (stereo not shown) [Example 9, 3-(7-(8-Azabicyclo[3.2.1]octan-3-yl)-2-(pyridin-4-yl)pyrazolo[1,5-a]pyrimidin-3-yl)phenol]	4 nM
CCOC(=O)N1C2CCC1CC(c1ccnc3c(-c4ccc(Cl)c(OC)c4)c(-c4ccncc4)nn13)C2 (stereo not shown) [Example 10, Ethyl 3-(3-(4-chloro-3-methoxyphenyl)-2-(pyridin-4-yl)pyrazolo[1,5-a]pyrimidin-7-yl)-8-azabicyclo[3.2.1]octane-8-carboxylate]	54 nM
Oc1cc(-c2c(-c3ccncc3)nn3c(C4CC5CCC(C4)N5)ccnc23)ccc1Cl (stereo not shown) [Example 12, 5-(7-(8-Azabicyclo[3.2.1]octan-3-yl)-2-(pyridin-4-yl)pyrazolo[1,5-a]pyrimidin-3-yl)-2-chlorophenol]	0.4 nM
CC(=O)N1C2CCC1CC(c1ccnc3c(-c4ccc(Cl)c(O)c4)c(-c4ccncc4)nn13)C2 (stereo not shown) [Example 13, 5-[7-(8-Acetyl-8-azabicyclo[3.2.1]oct-3-yl)-2-pyridin-4-ylpyrazolo[1,5-a]pyrimidin-3-yl]-2-chlorophenol]	0.3 nM
CCN1C2CCC1CC(c1ccnc3c(-c4ccc(Cl)c(OC)c4)c(-c4ccncc4)nn13)C2 (stereo not shown) [Example 17, 3-(4-Chloro-3-methoxyphenyl)-7-(8-ethyl-8-azabicyclo[3.2.1]oct-3-yl)-2-pyridin-4-ylpyrazolo[1,5-a]pyrimidine]	44 nM
COc1cccc(-c2c(-c3ccncc3)nn3c(C4CC5CCC(C4)N5)ccnc23)c1 (stereo not shown) [Example 19, 7-(8-Azabicyclo[3.2.1]oct-3-yl)-3-(3-methoxyphenyl)-2-pyridin-4-ylpyrazolo[1,5-a]pyrimidine]	71 nM

From US20100029657A1, “Bridged, Bicyclic Heterocyclic or Spiro Bicyclic Heterocyclic Derivatives of Pyrazolo[1, 5-A]Pyrimidines, Methods for Preparation and Uses Thereof” (Wyeth, priority 2008, published 2010)
